This note sets out measurements from patent US8609636B2, “Oxime derivatives as sphingosine 1-phosphate (S1P) receptor modulators” (Allergan, Inc., priority 2010, dated 2013).

The assay addresses T1, human S1P1 receptor (Homo sapiens, UniProt P21453).
T1 construct: expressed in transfected cells; membranes used
Description: GTP γ35S binding assay for S1P1 activity. The assay is classed as biochemical. The following applies: activity potency, S1P1 receptor from GTP γ35S binding; membranes, test range 0.08 to 5,000 nM. How it is done:
Compounds were synthesized and tested for S1P1 activity using the GTP γ^35S binding assay. These compounds may be assessed for their ability to activate or block activation of the human S1P1 receptor in cells stably expressing the S1P1 receptor.
GTP γ^35S binding was measured in the medium containing (mM) HEPES 25, pH 7.4, MgCl2 10, NaCl 100, dithitothreitol 0.5, digitonin 0.003%, 0.2 nM GTP γ^35S, and 5 μg membrane protein in a volume of 150 μl. Test compounds were included in the concentration range from 0.08 to 5,000 nM unless indicated otherwise. Membranes were incubated with 100 μM 5′-adenylylimmidodiphosphate for 30 min, and subsequently with 10 μM GDP for 10 min on ice. Drug solutions and membrane were mixed, and then reactions were initiated by adding GTP γ^35S and continued for 30 min at 25° C. Reaction mixtures were filtered over Whatman GF/B filters under vacuum, and washed three times with 3 mL of ice-cold buffer (HEPES 25, pH7.4, MgCl2 10 and NaCl 100). Filters were dried and mixed with scintillant, and counted for ^35S activity using a β-counter. Agonist-induced GTP γ^35S binding was obtained by subtracting that in the absence of agonist. Binding data were analyzed using a non-linear regression method. In case of antagonist assay, the reaction mixture contained 10 nM S1P in the presence of test antagonist at concentrations ranging from 0.08 to 5000 nM.
(GTPγS resists hydrolysis and so accumulates on activated G proteins.)

T1 sequence (P21453 whole entry): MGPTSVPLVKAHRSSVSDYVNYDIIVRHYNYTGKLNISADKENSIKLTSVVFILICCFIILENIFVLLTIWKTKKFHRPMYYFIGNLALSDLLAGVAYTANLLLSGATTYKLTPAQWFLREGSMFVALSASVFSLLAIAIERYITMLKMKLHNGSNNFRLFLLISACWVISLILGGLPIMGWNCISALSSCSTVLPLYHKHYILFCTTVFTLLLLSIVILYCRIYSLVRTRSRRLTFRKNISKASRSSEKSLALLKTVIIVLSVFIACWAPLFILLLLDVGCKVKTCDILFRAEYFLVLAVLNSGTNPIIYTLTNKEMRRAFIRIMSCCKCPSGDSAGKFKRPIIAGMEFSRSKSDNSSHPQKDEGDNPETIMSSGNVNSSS

In general, EC50 refers to the concentration giving half of the maximal effect. The low end stands for higher potency in that assay, the high end for lower potency in that assay. In turn, `C/C(=N\OCC(Cc1ccc(C)c(C)c1)c1cccc(C)c1)c1ccc(CNCCC(=O)O)cc1` (stereo not shown) [Compound 1, 3-[(4-{(1E)-N-[3-(3,4-dimethylphenyl)-2-(3-methylphenyl)propoxy]ethanimidoyl}benzyl)amino]propanoic acid] came in with a concentration for a half-maximal effect (EC50) of 43.2 nM.

The compound `C/C(=N\OCC(Cc1ccc(C)c(C)c1)c1cccc(C)c1)c1ccc(CNCCCP(=O)(O)O)cc1` (stereo not shown) [Compound 2, {3-[(4-{(1E)-N-[3-(3,4-dimethylphenyl)-2-(3-methylphenyl)propoxy]ethanimidoyl}benzyl)amino]propyl}phosphonic acid] gave an EC50 of 23.4 nM.

In turn, `C/C(=N\OCC(Cc1ccc(C)c(C)c1)c1cccc(Cl)c1)c1ccc(CNCCC(=O)O)cc1` (stereo not shown) [Compound 3, 3-[(4-{(1E)-N-[2-(3-chlorophenyl)-3-(3,4-dimethylphenyl)propoxy]ethanimidoyl}benzyl)amino]propanoic acid] displayed an EC50 of 15.6 nM.

`C/C(=N\OCC(Cc1ccc(C)c(C)c1)c1cccc(Cl)c1)c1ccc(CNCCCP(=O)(O)O)cc1` (stereo not shown) [Compound 4, {3-[(4-{(1E)-N-[2-(3-chlorophenyl)-3-(3,4-dimethylphenyl)propoxy]ethanimidoyl}benzyl)amino]propyl}phosphonic acid] yielded an EC50 of 3.51 nM.

`C/C(=N\OCc1ccc(CNCCCP(=O)(O)O)cc1)C(Cc1ccc(C)c(C)c1)c1cccc(Cl)c1` (stereo not shown) [Compound 5, [3-({4-[({[(1E)-2-(3-chlorophenyl)-3-(3,4-dimethylphenyl)-1-methylpropylidene]amino}oxy)methyl]benzyl}amino)propyl]phosphonic acid] yielded an EC50 of 2.2 nM.

Take `C/C(=N\OCc1ccc(CNCCCP(=O)(O)O)cc1)C(Cc1ccc(C)c(C)c1)c1cc(F)cc(F)c1` (stereo not shown) [Compound 6, [3-({4-[({[(1E)-2-(3,5-difluorophenyl)-3-(3,4-dimethylphenyl)-1-methylpropylidene]amino}oxy)methyl]benzyl}amino)propyl]phosphonic acid]: the EC50 came to 0.88 nM.

The compound `C/C(=N\OCc1ccc(CNCCC(=O)O)cc1)C(Cc1ccc(C)c(C)c1)c1cc(F)cc(F)c1` (stereo not shown) [Compound 7, 3-({4-[({[(1E)-2-(3,5-difluorophenyl)-3-(3,4-dimethylphenyl)-1-methylpropylidene]amino}oxy)methyl]benzyl}amino)propanoic acid] displayed an EC50 of 6.8 nM.

`C/C(=N\OCc1ccc(CNCCCP(=O)(O)O)cc1)C(Sc1ccc(C)c(C)c1)c1cccc(Cl)c1` (stereo not shown) [Compound 10, {3-[(4-{[({(1E)-2-(3-chlorophenyl)-2-[(3,4-dimethylphenyl)thio]-1-methylethylidene}amino)oxy]methyl}benzyl)amino]propyl}phosphonic acid] yielded a half-maximal effective concentration (EC50) of 8.34 nM.

`C/C(=N\OCC(Oc1ccc(C)c(C)c1)c1cccc(Cl)c1)c1ccc(CNCCC(=O)O)cc1` (stereo not shown) [Compound 14, 3-[(4-{(1E)-N-[2-(3-chlorophenyl)-2-(3,4-dimethylphenoxy)ethoxy]ethanimidoyl}benzyl)amino]propanoic acid] yielded an EC50 of 216 nM.

For `C/C(=N\OCC(Oc1ccc(C)c(C)c1)c1cccc(Cl)c1)c1ccc(CNCCCP(=O)(O)O)cc1` (stereo not shown) [Compound 15, {3-[(4-{(1E)-N-[2-(3-chlorophenyl)-2-(3,4-dimethylphenoxy)ethoxy]ethanimidoyl}benzyl)amino]propyl}phosphonic acid], the concentration for a half-maximal effect (EC50) was 11.4 nM.
